Measured values as given in PubChem BioAssay AID2060625 (Molecular Pharmacology Branch, DTP, NCI, 2025).
Several values for one entry are separate records, joined by “and”; a condition that tells them apart may be missing. Identical values can stand only once.

Test system: 186277-243-T-J2-PDC spheroids with HUVEC/MSC, viability
Assay: Anticancer human tumor 186277-243-T-J2-PDC patient-derived colon adenocarcinoma cell line growth inhibition [CLK]
Settings: for viability, T/C: stronger effect = lower value
In short: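 Multi-cell-type spheroids combined patient-derived tumor cells with HUVEC endothelial cells and human mesenchymal stem cells. Paired agents were dosed in half-log steps down from about clinical Cmax, or from 10 microM where Cmax was unknown.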

[1] = curve of first compound, second compound 0.0316 µM
[2] = curve of first compound, second compound 0.1 µM
[3] = curve of first compound, second compound 0.316 µM
[4] = curve of first compound, second compound 1 µM
[5] = curve of first compound, second compound 3.16 µM
[6] = curve of first compound, second compound 10 µM
[7] = second compound 0.0316 µM, first compound 0.0316 µM
[8] = second compound 0.0316 µM, first compound 0.1 µM
[9] = second compound 0.1 µM, first compound 0.0316 µM
[10] = second compound 0.1 µM, first compound 0.1 µM
[11] = second compound 0.316 µM, first compound 0.0316 µM
[12] = second compound 0.316 µM, first compound 0.1 µM
[13] = second compound 1 µM, first compound 0.0316 µM
[14] = second compound 1 µM, first compound 0.1 µM
[15] = second compound 3.16 µM, first compound 0.0316 µM
[16] = second compound 3.16 µM, first compound 0.1 µM
[17] = second compound 10 µM, first compound 0.0316 µM
[18] = second compound 10 µM, first compound 0.1 µM
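Also: compound exposure lasted seven days before readout.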
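For viability, T/C in this document: 100% = DMSO vehicle control wells.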

SMILES: COc1cccc2c1C(=O)c1c(O)c3c(c(O)c1C2=O)CC(O)(C(=O)CO)CC3OC1CC(N)C(O)C(C)O1 (stereo not given) + CNC(=O)c1ccc(Nc2nc(OC3CCCC3)c3c(-c4ccc5nc(C)oc5c4)c[nH]c3n2)c(OC)c1
- IC50 [1]: 161 nM
- IC50 [2]: 138 nM
- IC50 [3]: 66 nM
- IC50 [4]: < 31.6 nM
- IC50 [5]: < 31.6 nM
- IC50 [6]: < 31.6 nM
- viability, T/C [7]: 112%
- viability, T/C [8]: 73.5%
- viability, T/C (second compound 0.0316 µM, first compound 0.316 µM): 17.3%
- viability, T/C (second compound 0.0316 µM, first compound 1 µM): 0.3%
- viability, T/C (second compound 0.0316 µM, first compound 3.16 µM): 3.88%
- viability, T/C (second compound 0.0316 µM, first compound 10 µM): 1.97%
- viability, T/C [9]: 72.2%
- viability, T/C [10]: 64.4%
- viability, T/C (second compound 0.1 µM, first compound 0.316 µM): 13%
- viability, T/C (second compound 0.1 µM, first compound 1 µM): 0.2%
- viability, T/C (second compound 0.1 µM, first compound 3.16 µM): 1.92%
- viability, T/C (second compound 0.1 µM, first compound 10 µM): 4.82%
- viability, T/C [11]: 52.4%
- viability, T/C [12]: 48.7%
- viability, T/C (second compound 0.316 µM, first compound 0.316 µM): 10.6%
- viability, T/C (second compound 0.316 µM, first compound 1 µM): 1.25%
- viability, T/C (second compound 0.316 µM, first compound 3.16 µM): 2.88%
- viability, T/C (second compound 0.316 µM, first compound 10 µM): 1.07%
- viability, T/C [13]: 40.7%
- viability, T/C [14]: 27.5%
- viability, T/C (second compound 1 µM, first compound 0.316 µM): 3.75%
- viability, T/C (second compound 1 µM, first compound 1 µM): 2.42%
- viability, T/C (second compound 1 µM, first compound 3.16 µM): 6.62%
- viability, T/C (second compound 1 µM, first compound 10 µM): 3.37%
- viability, T/C [15]: 34.2%
- viability, T/C [16]: 19.9%
- viability, T/C (second compound 3.16 µM, first compound 0.316 µM): 3.14%
- viability, T/C (second compound 3.16 µM, first compound 1 µM): 2.25%
- viability, T/C (second compound 3.16 µM, first compound 3.16 µM): 1.39%
- viability, T/C (second compound 3.16 µM, first compound 10 µM): 1.97%
- viability, T/C [17]: 34.8%
- viability, T/C [18]: 16.9%
- viability, T/C (second compound 10 µM, first compound 0.316 µM): 4.4%
- viability, T/C (second compound 10 µM, first compound 1 µM): 2.28%
- viability, T/C (second compound 10 µM, first compound 3.16 µM): 3.08%
- viability, T/C (second compound 10 µM, first compound 10 µM): 3.22%

SMILES: NC(=O)C(=Cn1cnc(-c2cc(C(F)(F)F)cc(C(F)(F)F)c2)n1)c1cncnc1
- viability, T/C (compound 0.00949 µM): 88.2% and 88.1%
- viability, T/C (compound 0.03 µM): 84.5% and 87.8%
- viability, T/C (compound 0.0949 µM): 113% and 107%
- viability, T/C (compound 0.3 µM): 18.2% and 10.8%
- viability, T/C (compound 0.949 µM): 4.07% and 5.27%
- viability, T/C (compound 3 µM): 1.81% and 3.46%
- IC50 (curve of compound): 186 nM and 175 nM

SMILES: Nc1ccccc1NC(=O)c1ccc(CNC(=O)OCc2cccnc2)cc1
- viability, T/C (compound 0.0316 µM): 100% and 92.4%
- viability, T/C (compound 0.1 µM): 88.7% and 92%
- viability, T/C (compound 0.316 µM): 85.5% and 84.9%
- viability, T/C (compound 1 µM): 110% and 100%
- viability, T/C (compound 3.16 µM): 76.6% and 48%
- viability, T/C (compound 10 µM): 23.2% and 13.7%
- IC50 (curve of compound): 5600 nM and 3010 nM

SMILES: CC(=O)O[C@H]1C(=O)[C@@]2(C)[C@H]([C@H](OC(=O)c3ccccc3)[C@]3(O)C[C@H](OC(=O)[C@H](O)[C@@H](NC(=O)c4ccccc4)c4ccccc4)C(C)=C1C3(C)C)[C@]1(OC(C)=O)CO[C@@H]1C[C@@H]2O
- viability, T/C (compound 0.0316 µM): 25.2% and 16.5%
- viability, T/C (compound 0.1 µM): 12.1% and 8.36%
- viability, T/C (compound 0.316 µM): 11.6% and 7.98%
- viability, T/C (compound 1 µM): 10.8% and 6.74%
- viability, T/C (compound 3.16 µM): 8.76% and 8.77%
- viability, T/C (compound 10 µM): 10.4% and 7.1%
- IC50 (curve of compound): < 31.6 nM

SMILES: Cn1ncnc1[C@H]1c2n[nH]c(=O)c3cc(F)cc(c23)N[C@@H]1c1ccc(F)cc1 + CNC(=O)c1ccc(Nc2nc(OC3CCCC3)c3c(-c4ccc5nc(C)oc5c4)c[nH]c3n2)c(OC)c1
- IC50 [1]: > 100 nM
- IC50 [2]: > 100 nM
- IC50 [3]: < 0.316 nM
- IC50 [4]: < 0.316 nM
- IC50 [5]: < 0.316 nM
- IC50 [6]: < 0.316 nM
- viability, T/C (second compound 0.0316 µM, first compound 0.000316 µM): 94.7%
- viability, T/C (second compound 0.0316 µM, first compound 0.001 µM): 103%
- viability, T/C (second compound 0.0316 µM, first compound 0.00316 µM): 107%
- viability, T/C (second compound 0.0316 µM, first compound 0.01 µM): 105%
- viability, T/C [7]: 107%
- viability, T/C [8]: 113%
- viability, T/C (second compound 0.1 µM, first compound 0.000316 µM): 63.8%
- viability, T/C (second compound 0.1 µM, first compound 0.001 µM): 61.7%
- viability, T/C (second compound 0.1 µM, first compound 0.00316 µM): 66.6%
- viability, T/C (second compound 0.1 µM, first compound 0.01 µM): 62.3%
- viability, T/C [9]: 69.9%
- viability, T/C [10]: 68.5%
- viability, T/C (second compound 0.316 µM, first compound 0.000316 µM): 36.9%
- viability, T/C (second compound 0.316 µM, first compound 0.001 µM): 42.5%
- viability, T/C (second compound 0.316 µM, first compound 0.00316 µM): 46.3%
- viability, T/C (second compound 0.316 µM, first compound 0.01 µM): 46.2%
- viability, T/C [11]: 49.4%
- viability, T/C [12]: 48.6%
- viability, T/C (second compound 1 µM, first compound 0.000316 µM): 27%
- viability, T/C (second compound 1 µM, first compound 0.001 µM): 31.4%
- viability, T/C (second compound 1 µM, first compound 0.00316 µM): 31.4%
- viability, T/C (second compound 1 µM, first compound 0.01 µM): 33.2%
- viability, T/C [13]: 40%
- viability, T/C [14]: 30.2%
- viability, T/C (second compound 3.16 µM, first compound 0.000316 µM): 27.1%
- viability, T/C (second compound 3.16 µM, first compound 0.001 µM): 27.8%
- viability, T/C (second compound 3.16 µM, first compound 0.00316 µM): 31.1%
- viability, T/C (second compound 3.16 µM, first compound 0.01 µM): 30.9%
- viability, T/C [15]: 33%
- viability, T/C [16]: 30.7%
- viability, T/C (second compound 10 µM, first compound 0.000316 µM): 30.3%
- viability, T/C (second compound 10 µM, first compound 0.001 µM): 29.3%
- viability, T/C (second compound 10 µM, first compound 0.00316 µM): 31.9%
- viability, T/C (second compound 10 µM, first compound 0.01 µM): 30.9%
- viability, T/C [17]: 36.2%
- viability, T/C [18]: 32.3%
